Measured values published in patent US20250326771A1, “PIPERAZINE DERIVATIVES USEFUL IN HIV THERAPY” (VIIV HEALTHCARE COMPANY, priority 2022, published 2025).

Key:
[1] = molecular target: XIAP-BIR3 (Homo sapiens (Human), UniProt P98170); experiment: BIR binding assay (FRET competition), XIAP BIR3; details: for XIAP BIR3 vs BIR2 separation window: fold separation (FS) for XIAP
In short: (§1)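 615/665 nm FRET ratio. Compound, His-domain and 200 nM AF647-SMAC peptide incubated 60 min, then 2 nM Eu-W1024 for 30 min. Domains: cIAP1-BIR3 50 nM; XIAP-BIR3 100 nM; cIAP1-BIR2, cIAP2-BIR2 325 nM each. 15-pt 3-fold series; variable-slope IC50.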

[2] = molecular target: cIAP2-BIR3 (Homo sapiens (Human), UniProt Q13489); experiment: BIR binding assay (FRET competition), cIAP2 BIR3; details: for cIAP2 BIR3 vs BIR2 separation window: fold separation (FS) for cIAP2
Sequence of cIAP2-BIR3 (Q13489 238-349): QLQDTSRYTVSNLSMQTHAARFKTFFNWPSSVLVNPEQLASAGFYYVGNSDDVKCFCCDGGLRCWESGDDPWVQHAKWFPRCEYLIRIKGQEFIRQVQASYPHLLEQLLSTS

[3] = test system: Jurkat HIV-luciferase clones; experiment: Jurkat latency reversal assay; assay type: cell-based; details: Homo sapiens, 48 h; Jurkat latency reversal assay potency; read-out: Jurkat pEC50 (converted)
In short: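 Three pooled Jurkat reporter clones, each with one or two integrated HIV-luciferase proviruses, 5,000 cells/well; duplicate 14-point titrations starting at 10 μM; 48 h, 37° C, then Steady-Glo luminescence; four-parameter logistic analysis yields EC50 and percent maximal activation against DMSO vehicle.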

[4] = molecular target: cIAP1-BIR3 (Homo sapiens (Human), UniProt Q13490); experiment: BIR binding assay (FRET competition), cIAP1 BIR3; details: for cIAP1 BIR3 vs BIR2 separation window: fold separation (FS) for cIAP1
Sequence of cIAP1-BIR3 (Q13490 253-363): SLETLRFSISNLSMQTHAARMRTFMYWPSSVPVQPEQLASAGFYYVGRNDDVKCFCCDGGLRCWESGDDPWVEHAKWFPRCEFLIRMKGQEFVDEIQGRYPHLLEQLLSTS
In short: as §1

[5] = molecular target: XIAP-BIR2 (Homo sapiens (Human), UniProt P98170); experiment: BIR binding assay (FRET competition), XIAP BIR2; details: FRET competition binding; for IC50: read-out: XIAP BIR2 (pIC50) (converted)
Sequence of XIAP-BIR2 (P98170 124-240): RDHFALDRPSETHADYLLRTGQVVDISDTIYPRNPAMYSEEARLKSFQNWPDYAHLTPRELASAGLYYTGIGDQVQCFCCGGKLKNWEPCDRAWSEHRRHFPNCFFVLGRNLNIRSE
Description: The BIR domain binding assays are FRET based competition assays that utilize His-tagged versions of each of the BIR2 and BIR3 domains from cIAP1, cIAP2, and XIAP (each domain assayed separately) each at a custom optimal concentration and a probe, 200 nM SMAC/DIABLO peptide AVPIAQKSE labelled with AlexaFluor647 (part #crb 1110326h, Discovery Peptides). The assay is conducted in 50 mM HEPES, […], 1 mM CHAPS, 5% Glycerol, 1 mM DTT, in dI water with a final pH of 7.4 and final volume of 20 uL. Final protein domain concentrations are: 50 nM cIAP1-BIR3 (Part #APT-11-370 Reaction Biology), 100 nM XIAP-BIR3 (Part #APT-11-351 Reaction Biology), 200 nM XIAP-BIR2 (Part #APT-11-470 Reaction Biology), 325 nM cIAP2-BIR2 (Part #APT-11-489 Reaction Biology), 50 nM cIAP2-BIR3 (Part #APT-11-372 Reaction Biology), 325 nM cIAP1-BIR2 (Part #APT-11-487 Reaction Biology). Compounds were plated using a HP Tecan D300 printer in a final total volume of 202 nl and DMSO concentration normalized across the 15-point, 3-fold dilution series. Peptide and probe were prepared at 2× relative to the concentrations above in binding buffer, 10 uL added to the prepared compound plates, and incubated for 60 minutes. LANCE Eu-W1024 (part #AD0401 Perkin Elmer #, vendor) was prepared at 2× concentration in binding buffer for final concentration of 2 nM, 10 uL added to each well, and plates incubated for 30 minutes. Plates were read on an ENVISION multifunction plate reader with […] laser excitation to obtain the 615 nm/665 nm emission ratio as indicative of probe:protein proximity. Data was analyzed using GraphPad PRISM and curves fit using log(inhibitor) vs. response—Variable slope (four […] method to obtain IC50 and pIC50 values.

[6] = molecular target: cIAP2-BIR2 (Homo sapiens (Human), UniProt Q13489); experiment: BIR binding assay (FRET competition), cIAP2 BIR2
Sequence of cIAP2-BIR2 (Q13489 158-242): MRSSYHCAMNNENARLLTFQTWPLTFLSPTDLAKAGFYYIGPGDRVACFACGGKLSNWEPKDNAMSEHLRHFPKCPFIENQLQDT
In short: as §1

[7] = molecular target: cIAP1-BIR2 (Homo sapiens (Human), UniProt Q13490); experiment: BIR binding assay (FRET competition), cIAP1 BIR2
Sequence of cIAP1-BIR2 (Q13490 173-257): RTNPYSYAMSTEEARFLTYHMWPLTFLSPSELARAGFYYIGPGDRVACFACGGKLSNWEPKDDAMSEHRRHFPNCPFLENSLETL
In short: as §1

Sequence of XIAP-BIR3 (P98170 241-356): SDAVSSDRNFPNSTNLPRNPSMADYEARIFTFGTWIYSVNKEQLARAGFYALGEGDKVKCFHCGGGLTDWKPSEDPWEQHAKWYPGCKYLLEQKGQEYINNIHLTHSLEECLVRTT

Structure (SMILES) | IC50 [1] [nM] | XIAP BIR3 vs BIR2 separation window [1] | IC50 [2] [nM] | EC50 [3] [nM] | IC50 [4] [nM] | IC50 [5] [nM] | XIAP BIR2 (pIC50) [5] | cIAP2 BIR3 vs BIR2 separation window [2] | IC50 [6] [nM] | cIAP1 BIR3 vs BIR2 separation window [4] | IC50 [7] [nM]
C[C@@H]1CN(CC(=O)N2CC(C)(C)c3[nH]c(=O)c(Cc4ccc(F)cc4)cc32)[C@@H](CN2CCO[C@H](COc3ccccc3Cc3ccccc3OC[C@@H]3CN(C[C@H]4CN[C@H](C)CN4CC(=O)N4CC(C)(C)c5[nH]c(=O)c(Cc6ccc(F)cc6)cc54)CCO3)C2)CN1 [Example 66, 1,1′-(2,2′-((3R,3′R,6R,6′R)-(((2S,2'S)-(((methylenebis(2,1-phenylene))bis(oxy))bis(methylene))bis(morpholine-2,4-diyl))bis(methylene))bis(3-methylpiperazine-6,1-diyl))bis(acetyl))bis(6-(4-fluorobenzyl)-3,3-dimethyl-1,2,3,4-tetrahydro-5H-pyrrolo[3,2-b]pyridin-5-one)] | 15.8 to 31.6 | ++++ (FS>10,000) | 7.94 to 15.8 | 0.49 to 12.6 | 15.8 to 31.6 | 10000 to 51300 | – | – | – | – | –
C[C@@H]1CN(CC(=O)N2CC(C)(C)c3[nH]c(=O)c(Cc4ccc(F)cc4)cc32)[C@@H](CN2CCC(C(F)(F)COc3cccc(OCC(F)(F)C4CCN(C[C@H]5CN[C@H](C)CN5CC(=O)N5CC(C)(C)c6[nH]c(=O)c(Cc7ccc(F)cc7)cc65)CC4)c3)CC2)CN1 [Example 110, 1,1′-(2,2′-((3R,3′R,6R,6′R)-((((1,3-phenylenebis(oxy))bis(1,1-difluoroethane-2,1-diyl))bis(piperidine-4,1-diyl))bis(methylene))bis(3-methylpiperazine-6,1-diyl))bis(acetyl))bis(6-(4-fluorobenzyl)-3,3-dimethyl-1,2,3,4-tetrahydro-5H-pyrrolo[3,2-b]pyridin-5-one)] | 15.8 to 31.6 | ++++ (FS>10,000) | 15.8 to 31.6 | 0.49 to 12.6 | 15.8 to 31.6 | 10000 to 51300 | – | – | – | – | –
C[C@@H]1CN(CC(=O)N2CC(C)(C)c3[nH]c(=O)c(Cc4ccc(F)cc4)cc32)[C@@H](CN2CCO[C@H](COc3ccc(-c4ccccc4)c(OC[C@@H]4CN(C[C@H]5CN[C@H](C)CN5CC(=O)N5CC(C)(C)c6[nH]c(=O)c(Cc7ccc(F)cc7)cc65)CCO4)c3)C2)CN1 [Example 78, 1,1′-(2,2′-((3R,3′R,6R,6′R)-(((2S,2'S)—(([1,1′-biphenyl]-2,4-diylbis(oxy))bis(methylene))bis(morpholine-2,4-diyl))bis(methylene))bis(3-methylpiperazine-6,1-diyl))bis(acetyl))bis(6-(4-fluorobenzyl)-3,3-dimethyl-1,2,3,4-tetrahydro-5H-pyrrolo[3,2-b]pyridin-5-one)] | 7.94 to 15.8 | +++ (10,000>FS>1,000) | 1.38 to 7.94 | 12.6 to 63.1 | 1.38 to 7.94 | – | ++ (5.00<pIC50<=5.50) | – | – | – | –
C[C@@H]1CN(CC(=O)N2CC(C)(C)c3c2cc(Cc2ccc(F)cc2)c(=O)n3C)[C@@H](CN2CCO[C@H](COCC#CC#CCOC[C@@H]3CN(C[C@H]4CN[C@H](C)CN4CC(=O)N4CC(C)(C)c5c4cc(Cc4ccc(F)cc4)c(=O)n5C)CCO3)C2)CN1 [Example 116, 1,1′-(2,2′-((3R,3′R,6R,6′R)-(((2S,2'S)-((hexa-2,4-diyne-1,6-diylbis(oxy))bis(methylene))bis(morpholine-2,4-diyl))bis(methylene))bis(3-methylpiperazine-6,1-diyl))bis(acetyl))bis(6-(4-fluorobenzyl)-3,3,4-trimethyl-1,2,3,4-tetrahydro-5H-pyrrolo[3,2-b]pyridin-5-one)] | 31.6 to 501 | – | 15.8 to 31.6 | 316 to 3310 | 15.8 to 31.6 | – | – | +++ (10,000>FS>1,000) | 3160 to 10000 | +++ (10,000>FS>1,000) | 3160 to 10000
COC(=O)c1cc(F)ccc1Cc1cnc2c(c1)N(C(=O)CN1C[C@@H](C)NC[C@@H]1CN1CCO[C@H](COc3cccc(OC[C@@H]4CN(C[C@H]5CN[C@H](C)CN5CC(=O)N5CC(C)(C)c6ncc(Cc7ccc(F)cc7C(=O)OC)cc65)CCO4)c3)C1)CC2(C)C [Compound 152] | 31.6 to 501 | – | 7.94 to 15.8 | 63.1 to 316 | 7.94 to 15.8 | – | – | +++ (10,000>FS>1,000) | 3160 to 10000 | +++ (10,000>FS>1,000) | 3160 to 10000
C[C@@H]1CN(CC(=O)N2CC(C)(C)c3[nH]c(=O)c(Cc4ccc(F)cc4)cc32)[C@@H](CN2CCN(C(=O)c3ccc(/C=C/c4ccc(C(=O)N5CCN(C[C@H]6CN[C@H](C)CN6CC(=O)N6CC(C)(C)c7[nH]c(=O)c(Cc8ccc(F)cc8)cc76)[C@H](C)C5)cc4)cc3)C[C@H]2C)CN1 [Example 20, 1,1′-(2,2′-((3R,3′R,6R,6′R)-(((2R,2′R)-(4,4′-((E)-ethene-1,2-diyl)bis(benzoyl))bis(2-methylpiperazine-4,1-diyl))bis(methylene))bis(3-methylpiperazine-6,1-diyl))bis(acetyl))bis(6-(4-fluorobenzyl)-3,3-dimethyl-1,2,3,4-tetrahydro-5H-pyrrolo[3,2-b]pyridin-5-one)] | 31.6 to 501 | – | 15.8 to 31.6 | 12.6 to 63.1 | 15.8 to 31.6 | – | – | ++ (1,000>FS>100) | 22.4 to 1000 | + (100>FS>1) | 22.4 to 1000
C[C@@H]1CN(CC(=O)N2CC(C)(C)c3[nH]c(=O)c(Cc4ccc(F)cc4)cc32)[C@@H](CN2CCO[C@H](C(=O)NCCCCCCCCCCNC(=O)[C@@H]3CN(C[C@H]4CN[C@H](C)CN4CC(=O)N4CC(C)(C)c5[nH]c(=O)c(Cc6ccc(F)cc6)cc54)CCO3)C2)CN1 [Example 120, (2S,2'S)-N,N′-(decane-1,10-diyl)bis(4-(((2R,5R)-1-(2-(6-(4-fluorobenzyl)-3,3-dimethyl-5-oxo-2,3,4,5-tetrahydro-1H-pyrrolo[3,2-b]pyridin-1-yl)-2-oxoethyl)-5-methylpiperazin-2-yl)methyl)morpholine-2-carboxamide)] | 15.8 to 31.6 | – | 7.94 to 15.8 | 63.1 to 316 | 7.94 to 15.8 | – | – | +++ (10,000>FS>1,000) | 1000 to 3160 | +++ (10,000>FS>1,000) | 1000 to 3160
C[C@@H]1CN(CC(=O)N2CC(C)(C)c3[nH]c(=O)c(Cc4ccc(F)cc4)cc32)[C@@H](CN2CCO[C@H](COCCOCCOC[C@@H]3CN(C[C@H]4CN[C@H](C)CN4CC(=O)N4CC(C)(C)c5[nH]c(=O)c(Cc6ccc(F)cc6)cc54)CCO3)C2)CN1 [Example 83, 1,1′-(2,2′-((3R,3′R,6R,6′R)-(((2S,2'S)-(((oxybis(ethane-2,1-diyl))bis(oxy))bis(methylene))bis(morpholine-2,4-diyl))bis(methylene))bis(3-methylpiperazine-6,1-diyl))bis(acetyl))bis(6-(4-fluorobenzyl)-3,3-dimethyl-1,2,3,4-tetrahydro-5H-pyrrolo[3,2-b]pyridin-5-one)] | 15.8 to 31.6 | – | 15.8 to 31.6 | 12.6 to 63.1 | 15.8 to 31.6 | – | – | +++ (10,000>FS>1,000) | 3160 to 10000 | +++ (10,000>FS>1,000) | 3160 to 10000
